Biological target: human Factor XIIa (Homo sapiens (Human), UniProt P00748)
Test: Factor XIIa Assay
Type: biochemical
Conditions: purified human Factor XIIa 500 pM; substrate n-Acetyl-Lys-Pro-Arg-AFC 100 μM; pH 7.4; read-out: FXIIa IC50
Description: The effectiveness of a compound of the present invention as an inhibitor of Coagulation Factor XIIa can be determined using a relevant purified serine protease, and an appropriate synthetic substrate. The rate of hydrolysis of the chromogenic or fluorogenic substrate by the relevant serine protease was measured both in the absence and presence of compounds of the present invention. Assays were conducted at room temperature or at 37° C. […] A decrease in the rate of fluorescence change in the presence of inhibitor is indicative of enzyme inhibition. Such methods are known to one skilled in the art.
Factor XIIa activity determinations were made in 50 mM HEPES buffer containing 150 mM NaCl, 5 mM CaCl2, and 0.1% PEG 8000 (polyethylene glycol; JT Baker or Fisher Scientific) at pH 7.4. Determinations were made using purified human Factor XIIa at a final concentration of 500 pM (Sekisui Diagnostics) and the synthetic substrate, n-Acetyl-Lys-Pro-Arg-AFC, TFA salt (Sigma #C6608) at a concentration of 100 μM.
Times required to achieve equilibration between enzyme and inhibitor were determined in control experiments. Initial velocities of product formation in the absence (Vo) or presence of inhibitor (Vi) were measured. IC50 was determined as the concentration of I yielding Vi=Vo/2.

Chain of human Factor XIIa (P00748 373-615): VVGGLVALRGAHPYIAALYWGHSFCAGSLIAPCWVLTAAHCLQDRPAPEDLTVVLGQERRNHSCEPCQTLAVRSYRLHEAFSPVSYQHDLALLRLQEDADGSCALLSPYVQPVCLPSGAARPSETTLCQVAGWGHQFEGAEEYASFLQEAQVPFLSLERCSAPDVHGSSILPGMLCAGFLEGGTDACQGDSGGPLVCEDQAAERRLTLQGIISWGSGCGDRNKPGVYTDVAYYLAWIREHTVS

SMILES | IC50 [nM]
COc1cc(CNC(=O)[C@@H]2CN(C(=O)Oc3cccc(CN)c3)CCN2C(=O)[C@@H](CCCCNS(C)(=O)=O)NC2CCC3(CC2)CCN(Cc2ccccc2)C3)ccc1CN (stereo partly drawn) [Example 76, 3-(aminomethyl)phenyl (3S)-3-{[4-(aminomethyl)-3-methoxybenzyl]carbamoyl}-4-[N^2-(2-benzyl-2-azaspiro[4.5]dec-8-yl)-N^6= (methylsulfonyl)-D-lysyl]piperazine-1-carboxylate] | 4.1
CN(C)CCCC[C@H](C(=O)N1CCN(C2=NC(C)(C)C(c3ccccc3)O2)C[C@H]1C(=O)NCc1ccc(C(N)=O)cc1)N(C)C (stereo partly drawn) [Example 155, (2S)-N-(4-carbamoylbenzyl)-4-(4,4-dimethyl-5-phenyl-4,5-dihydro-1,3-oxazol-2-yl)-1-(N^2,N^2,N^6,N^6-tetramethyl-D-lysyl)piperazine-2-carboxamide] | 53.6
COc1cc(CNC(=O)[C@@H]2CN(C(=O)Oc3ccc4ccccc4c3Cl)CCN2C(=O)[C@@H](CCCCN(C)C)NC2CCC(CN)CC2)ccc1CN (stereo partly drawn) [Example 92, 1-chloronaphthalen-2-yl (3S)-4-{N^2-[4-(aminomethyl)cyclohexyl]-N^6,N^6-dimethyl-D-lysyl}-3-{[4-(aminomethyl)-3-methoxybenzyl]carbamoyl}piperazine-1-carboxylate] | 2.9
CN(C)CCCC[C@@H](NC1CCCCC1)C(=O)N1CCN(C2=NC(C)(C)CO2)C[C@H]1C(=O)NCc1cccs1 [Example 144, (2S)-1-(N^2-cyclohexyl-N^6,N^6-dimethyl-D-lysyl)-4-(4,4-dimethyl-4,5-dihydro-1,3-oxazol-2-yl)-N-(thiophen-2-ylmethyl)piperazine-2-carboxamide] | 29.7
Cc1ccc(OC(=O)N2CCN(C(=O)[C@@H](CCCCN(C)C)N(C)C3CCCCC3)[C@H](C(=O)NCc3cccs3)C2)c(Cl)c1C [Example 101, 2-chloro-3,4-dimethylphenyl (3S)-4-(N^2-cyclohexyl-N^2,N^6,N^6-trimethyl-D-lysyl)-3-[(thiophen-2-ylmethyl)carbamoyl]piperazine-1-carboxylate] | 0.1
NCc1ccc(OC(=O)N2CCN(C(=O)[C@@H](CC3CCCCC3)NC3CCCCC3)[C@H](C(=O)NCc3cccs3)C2)c(Cl)c1 [Example 21, 4-(aminomethyl)-2-chlorophenyl (3S)-4-(N,3-dicyclohexyl-D-alanyl)-3-[(thiophen-2-ylmethyl)carbamoyl]piperazine-1-carboxylate] | 6.7
CN(C)CCCC[C@@H](NC1CCC2(CC1)CCN(Cc1ccccc1)C2)C(=O)N1CCN(C(=O)CC2CCCC2)C[C@H]1C(=O)NCc1cccs1 (stereo partly drawn) [Example 93, (2S)-1-[N^2-(2-benzyl-2-azaspiro[4.5]dec-8-yl)-N^6,N^6-dimethyl-D-lysyl]-4-(cyclopentylacetyl)-N-(thiophen-2-ylmethyl)piperazine-2-carboxamide] | 23.5
C[C@@H]1N=C(N2CCN(C(=O)[C@@H](CCCCNS(C)(=O)=O)NC3CCCCC3)[C@H](C(=O)NCc3cccs3)C2)O[C@@H]1c1ccccc1 [Example 152, (2S)-1-[N^2-cyclohexyl-N^6-(methylsulfonyl)-D-lysyl]-4-[(4S,5R)-4-methyl-5-phenyl-4,5-dihydro-1,3-oxazol-2-yl]-N-(thiophen-2-ylmethyl)piperazine-2-carboxamide] | 34.2
O=C(NCc1cccs1)[C@@H]1CN(C(=O)Oc2ccccc2Cl)CCN1C(=O)[C@@H](CCCCN1CCCCC1)NC1CCCCC1 [Example 97, 2-chlorophenyl (3S)-4-(N-cyclohexyl-6-piperidin-1-yl-D-norleucyl)-3-[(thiophen-2-ylmethyl)carbamoyl]piperazine-1-carboxylate] | 0.7
Cc1ccc(OC(=O)N2CCN(C(=O)[C@@H](CCCCN3CCCCC3)NC3CCC4(CC3)CCN(Cc3ccccc3)C4)[C@H](C(=O)NCc3cccs3)C2)c(Cl)c1C (stereo partly drawn) [Example 104, 2-chloro-3,4-dimethylphenyl (3S)-4-[N-(2-benzyl-2-azaspiro[4.5]dec-8-yl)-6-piperidin-1-yl-D-norleucyl]-3-[(thiophen-2-ylmethyl)carbamoyl]piperazine-1-carboxylate] | 0.2

— patent publication US10875851B2, “Factor XIIa inhibitors” (Merck Sharp & Dohme Corp., priority 2016, dated 2020)
